Measurements taken from PMC10056899, “Neuroprotective and Antiherpetic Properties of Polyphenolic Compounds from Maackia amurensis Heartwood” (Molecules, 2023).
In brackets after ≈: the same amount, converted by molar mass. Several values for one entry are separate records, joined by “and”; a condition that tells them apart may be missing. Equal values may be shown once. Read-outs that look alike come from different tables or passages of the source.

Experiments:
[1] = tested on: HSV-1; experiment: Anti-HSV-1 activity, HSV-1 DNA level by real-time PCR (RT-PCR); assay type: cell-based, HSV-1 strain L2; conditions: 5 µg/mL, simultaneous treatment, 48 h; for 1, 4 and Maxar given on average
Experimental: The anti-HSV-1 activity of the polyphenolic compounds from M. amurensis was also studied using the real-time PCR (RT-PCR) technique (Figure 5 and Table S69, Supplementary Data). Vero cells were simultaneously infected with 100 TCD50/mL HSV-1 and treated with polyphenolic compounds 1–6 at concentrations of 50 and 5 μg/mL. After 48 h of cell incubation, viral DNA was extracted from the supernatants, and the relative level of HSV-1 DNA was determined using RT-PCR. The effect of stilbenes on the relative level of viral DNA was assessed by 2^−ΔCt method and reported as fold reduction relative to virus control, to which the value of 1.0 was assigned.
For the viral DNA extraction assay, Vero cells grown in 96-well plates were infected with HSV-1 and simultaneously treated with polyphenolic compounds and incubated at 37 °C in a CO2-incubator for 48 h. After incubation, the culture media and the cells scraped from the plate were transferred to centrifuge tubes. The cell debris was removed by centrifugation at 300× g for 10 min. Then, supernatant was collected and kept at −20 °C. The HSV-1 DNA was extracted from supernatant by using the AmpliSens® DNA-sorb-AM (K1-12-100-CE) nucleic acid extraction kit (Moscow, Russia) according to the manufacturer′s instructions. […]
The DNA HSV was detected in the obtained DNA samples using the AmpliSens® HSV I, II-FRT-100F PCR kit (Moscow, Russia) on a real-time PCR instrument Rotor-Gene Q (Qiagen, Hilden, Nordrhein-Westfalen, Germany) according to the manufacturer′s instructions. […] In the real-time PCR, the amplified product is detected with the use of fluorescent dyes. […] The threshold cycle number, Ct, was measured as the PCR cycle, where the amount of amplified target reached the threshold value. The reduction in the HSV-1 DNA levels in culture supernatants was assessed by the change in the threshold cycle (ΔCt) (Equation (4)):(4) ΔCt=Cttv−Ctcv where: • Cttv is the average Ct value for the infected samples after treatment with polyphenolic compounds; • Ctcv corresponds to the average Ct value for the virus control. […]

[2] = tested on: HSV-1; experiment: Anti-HSV-1 activity, cytopathic effect (CPE) inhibition assay in Vero cells; assay type: cell-based, HSV-1 strain L2; conditions: for IC50: read-out: IC50 (CPE assay); for SI = CC50/IC50: Vero cells, HSV-1
Experimental: (§1) The HSV-1 strain L2 and Vero cell culture (kidney epithelial cells of the African green monkey Chlorocebus sp.) were obtained from the N.F. Gamaleya Federal Research Centre for Epidemiology and Microbiology (Moscow, Russia). HSV-1 was grown in Vero cells, using Dulbecco′s Modified Eagle′s Medium (DMEM, Biolot, St. Petersburg, Russia) supplemented with 10% fetal bovine serum (FBS, Biolot, St. Petersburg, Russia) and 100 U/mL of gentamycin (Dalkhimpharm, Khabarovsk, Russia), at 37 °C in a CO2 incubator. In the maintenance medium, the FBS concentration was decreased to 1%.
(§2) The tested compounds were dissolved in DMSO (Sigma, St. Louis, MO, USA) at a concentration 10 mg/mL and stored at −20 °C. For cytotoxicity and anti-HSV-1 activity determination, the stock solutions were diluted with DMEM so that the final concentration of DMSO was 0.5%.
The anti-HSV-1 activity of stilbenes was evaluated using cytopathic effect (CPE) inhibition assay in Vero cells. We infected the monolayer of cells grown in 96-well plates (1 × 10^4 cells/well) with 100 µL/well of virus suspension (100 TCD50/mL) and we simultaneously treated it with stilbenes 1–6 (100 µL/well) at various concentrations (from 1 to 400 μg/mL) for one hour at 37 ◦C. After virus absorption, we removed the mixture of virus and stilbenes, washed the cells, and added the maintenance medium with 1% FBS. […] We used MTT assay to evaluate the antiviral activity of stilbenes. The viral inhibition rate (IR, %) was calculated according to Equation (3):(3) IR, %=Atv−Acv/Acd−Acv×100, where: • Atv is the absorbance of cells infected with virus and treated with a polyphenolic compound; • Acv is the absorbance of the untreated virus-infected cells; • Acd is the absorbance of control (untreated and non-infected) cells.
The selectivity index (SI) was calculated as the ratio of CC50 to IC50. Experiments were repeated three times.

[3] = Cytotoxicity against Vero cells (MTT assay); assay type: cell-based; conditions: African green monkey (Chlorocebus sp.)
Experimental: as §1, §2
The cytotoxicity evaluation of the studied compounds was performed using the MTT assay, as described previously. In brief, confluent Vero cells in 96-well microplates (1 × 10^4 cells/well) were incubated with tested compounds at various concentrations (1–500 μg/mL) at 37 °C for 48 h (5% CO2). Untreated cells were used as controls. Then, MTT solution (methylthiazolyltetrazolium bromide, Sigma, St. Louis, MO, USA) was added to cells at a concentration of 5 mg/mL and the cells were incubated at 37 °C for 2 h. After dissolution of formazan crystals, optical densities were read at 540 nm (Labsystems Multiskan RC, Vantaa, Finland). […] [42]. Experiments were performed in triplicate and repeated three times.

[4] = Ferric reducing antioxidant power (FRAP) assay; conditions: 4 min, pH 3.6
Experimental: The FRAP assay was carried out as described in [41]. We prepared FRAP reagent by mixing 2.5 mL of TPTZ (2,4,6-tris(2-pyridyl)-s-triazine) solution (10 mM) in 40 mM HCl and […] of FeCl3 solution (20 mM) in acetate buffer solution (300 mM, pH 3.6). Then, we added stilbenes 1–6 to 3 mL of FRAP reagent at concentrations from 1 to 34 µM. The mixture was kept in the dark at room temperature for 4 min. Then, we measured the absorbance at 595 nm using a Shimadzu UV 1240 spectrophotometer. Equation (2) was used to calculate the FRAP values of stilbenes 1–6:(2) FRAP=CFe/Cx, where: • CFe is the concentration of Fe^2+ (µM) formed in the reaction; • Cx is the concentration of polyphenolic compounds in the reacting mixture.
The concentration of Fe^2+ (µM) formed in the reaction was determined using the calibration curve obtained for different concentrations of FeSO4·7H2O.

[5] = DPPH radical scavenging assay; conditions: 20 min; for IC50: read-out: DPPH Scavenging Effect IC50
Experimental: The DPPH (2,2-diphenyl-1-picrylhydrazyl) scavenging effect of polyphenolic compounds 1-6 from M. amurensis heartwood was evaluated as described previously in [40]. Stilbenes were added to DPPH solution in MeOH (10^−4 M) at a concentration range from 1 to 34 µM. The mixture was kept in the dark at room temperature for 20 min. Then, we measured the absorbance at 517 nm using a Shimadzu UV 1240 spectrophotometer (Shimadzu, Kyoto, Japan). The DPPH radical-scavenging effect (%) of the stilbenes was calculated using Equation (1): (1) DPPH scavenging effect, %=A0−Ax/A0×100, where: • A0 is the absorbance of DPPH solution without polyphenolic compounds (blank sample); • Ax is the absorbance of DPPH solution in the presence of different concentrations of polyphenolic compounds.
Quercetin and ascorbic acid were used as reference compounds. All experiments were performed in triplicate. The half maximal inhibitory concentration (IC50) for polyphenolic compounds was calculated by plotting the DPPH scavenging effect (%) against the concentrations of polyphenolic compounds. IC50 values are given as the mean ± SEM.

[6] = tested on: PQ-treated Neuro-2a cells; experiment: PQ-induced neurotoxicity model, cell viability (MTT assay); assay type: cell-based, murine; conditions: 10, 1, 0.1 μM, PQ 1 mM
Experimental: After 24 h of adhesion, we treated Neuro-2a cells (1 × 10^4 cells/well) with stilbenes (0.01–10 μM) for 1 h and added 1 mM of PQ (Sigma-Aldrich, St. Louis, MO, USA). Cells incubated without PQ or with PQ were used as positive and negative control, respectively. After 24 h, we measured the cell viability using MTT assay. The results are presented as percentages of the positive control value.

[7] = tested on: PQ-treated Neuro-2a cells; experiment: Intracellular ROS level in PQ-treated cells (H2DCF-DA); assay type: cell-based, murine; conditions: 10, 1, 0.1 μM
Experimental: After 24 h of adhesion, Neuro-2a cells (1 × 10^4 cells/well) were incubated with stilbenes (0.01–10 µM) for 1 h. After that, we added PQ (1 mM) to each well and incubated the cells for 3 h. To study ROS formation, we added 20 µL of 2,7-dichlorodihydrofluorescein diacetate solution ([…], H2DCF-DA, Molecular Probes, Eugene, OR, USA) to each well, so that the concentration was 10 µM, and kept the microplate in a CO2–incubator for additional 30 min at 37 °C.

[8] = tested on: PQ-treated Neuro-2a cells; experiment: Mitochondrial membrane potential in PQ-treated cells (TMRM); assay type: cell-based, murine; conditions: 10 μM
Experimental: […] Then, we added PQ (500 μM) and kept the cell suspension in a CO2-incubator for 1 h. Cells incubated without PQ and stilbenes and with PQ only were used as positive and negative control, respectively. We added the tetramethylrhodamine methyl (TMRM) (Sigma-Aldrich, St. Louis, MO, USA) solution (500 nM) to each well and kept the cells for 30 min in a CO2-incubator at 37 °C. The intensity of fluorescence was measured with a PHERAstar […] reader (BMG Labtech, Ortenberg, Germany) at λex = 540 nm and λem = 590 nm. We processed the data by MARS Data Analysis v. 3.01R2 (BMG Labtech, Ortenberg, Germany) and presented the results as percentages of the positive control value.

[9] = Human alphaherpesvirus 1, added to Vero cells simultaneously with the virus, 100 TCD50/mL

| SMILES | Reduction of relative level of HSV-1 DNA relative to virus control [1] | IC50 [2, 9] | SI = CC50/IC50 [2] | CC50 at 48 h [3] | FRAP CFe2+(µM)/Cpolyphenolic compound (µM) [4] | FRAP CFe2+(µM)/Cpolyphenolic compound (μkg/mL) [4] | DPPH Scavenging Effect IC50 [5] | IC50 [5] | Effect on viability of PQ-treated cells [6] | IC50 ([2]; Human alphaherpesvirus 1, Vero) | Effect on ROS level in PQ-treated cells [7] | Increase of mitochondrial membrane potential compared to PQ-treated cells [8] |
| --- | --- | --- | --- | --- | --- | --- | --- | --- | --- | --- | --- | --- |
| Nc1nc2c(ncn2COCCO)c(=O)[nH]1 [Acyclovir, reference compound] | 4 log10 | 2.1 µg/mL and 9.3 µM | 430 | > 1000 µg/mL and > 4 mM | – | – | – | – | – | – | – | – |
| Oc1cc(O)cc(/C=C/c2ccc(O)c(O)c2)c1 [Compound 2, piceatannol] | – | 22 µg/mL and 90.2 µM | 11.4 ± 1.4 | 250 ± 30 µg/mL (≈ 1020 µM) | 15.71 ± 1.43 CFe2+(µM)/Cpolyphenolic compound (µM) | 64.38 ± 5.86 CFe2+(µM)/Cpolyphenolic compound (μkg/mL) | 1.05 ± 0.12 µg | 4300 ± 500 nM | did not show any effect | – | – | – |
| COc1ccc(-c2coc3c4c(ccc3c2=O)OC(c2cc(O)cc(O)c2)C(c2ccc(O)c(O)c2)O4)cc1 (stereo not shown) [Compound 5, maackiasine] | – | – | 6.6 and 6.6 ± 0.8 | 156 µg/mL and 297 µM | 2.50 ± 0.38 CFe2+(µM)/Cpolyphenolic compound (µM) | 4.75 ± 0.72 CFe2+(µM)/Cpolyphenolic compound (μkg/mL) | 1.32 ± 0.16 µg | 2500 ± 300 nM | did not show any effect | 23.7 µg/mL and 45 µM | – | – |
| COc1cc([C@@H]2c3c(O)cc(O)cc3[C@@H]3[C@H]2CO[C@@H]3c2ccc(O)c(O)c2)cc(OC)c1O [Compound 6, maackolin] | – | – | 6.4 and 6.4 ± 0.8 | 256 µg/mL and 567 µM | – | 51.11 ± 5.86 CFe2+(µM)/Cpolyphenolic compound (μkg/mL) | 0.90 ± 0.14 µg | 2000 ± 300 nM | – | 40.2 µg/mL and 88.9 µM | did not decrease the ROS level | 9% |
